Laboratory results as given in patent US12158399B2, “CaMKK2 inhibitor compositions and methods of using the same” (Duke University, priority 2016, dated 2024).

How the values were obtained:
bone marrow derived MDSC = test: In vitro MDSC generation from bone marrow with H2O2 or antioxidants; type: cell-based, mouse; settings: added Day 0 and Day 3; 0.001 mM H2O2, 20 μM MitoTEMPO, 20 μM BHA
Description: To further study how ROS regulates MDSC differentiation, low dose of H2O2 and two commonly used antioxidants, MitoTEMPO and Butylated hydroxyanisole (BHA), were separately added to the culture media during MDSC in vitro generation. At basal condition, KO marrow generated less M-MDSC cells while differentiated more into Ly6C−CD11c+I-A+ mature dendritic cells compared to WT ones. […] The higher level of ROS in CaMKK2 KO MDSCs limited M-MDSC accumulation by facilitating the myeloid cell differentiation.
Bone marrow cells were prepared as described before. Cells after RBC lysis were seeded to 6-well plates (Coring, NY, USA) at 1×10^6 per well in 5 ml DMEM (Gibco, MA, USA) supplied with 10% FBS, 2 mM L-glutamine, 1.5 g/L sodium bicarbonate, 10 mM HEPES, 1.0 mM sodium pyruvate (all from Gibco, MA, USA), 10% fetal bovine serum (Hyclone, MA, USA), 40 nM recombinant mouse GM-CSF and 40 nM recombinant mouse IL-6 (Biolegend, CA, USA), and with or without 50% E.G7 supernatant. The supernatant was half-changed on Day 3. The floating cells were collected on Day 5 and enriched by anti-mouse Gr-1 Microbeads (Miltenyi, Bergisch Gladbach, Germany). The cells with the purity >90% were used. In some experiments as indicated, the cells were stained with APC anti-mouse Gr-1, PE anti-mouse/human CD11b (Biolegend, CA, USA). Double positive cells were sorted with BD FACS Aria II cell sorter (BD, NJ, USA).
For MDSC and BMDC, only floating cells were collected. 1×10^6 cells were spun down in BD Falcon round-bottom polystyrene tubes (BD, NY, USA). The cell pellet was incubated with 50 μl PBS with 2% FBS with FITC anti-mouse CD11c, PE anti-mouse/human CD11b, PE-Cy7 anti-mouse Ly6G, APC anti-mouse F4/80, APC-Cy7 anti-mouse I-A (all from BioLegend, CA, USA), PerCP Cy5.5 anti-mouse Ly6C, and Fixable Viability Dye eFluor® 450 (eBioscience, CA, USA) at 4° C. for 15 min. Cells were washed once with 2 ml PBS with 2% FBS and fixed with 200 μl 1.5% PFA in 4° C. till analysis.

E0771 cells [1] = test: Orthotopic E0771 mammary tumor growth; type: in vivo, mouse; settings: orthotopic graft in syngeneic wildtype mice; STO-609 IP 3-times/week
Procedure: (§1) E0771, 4T1 and Met1 grafts: 200,000 of the indicated cells were grafted orthotopically into the mammary fat pad of mice. 4T1 and Met1 cells were grafted in 50% matrigel. Resulting tumors were assessed by direct caliper measurement. To get sizable tumors in Camkk2−/− mice for IHC and flow cytometry studies, a higher number of E0771 (4×10^5) where grafted. This information has been reported in the corresponding figures.
(§2) These drugs were administered intraperitoneally daily. […] GSK treatment was initiated at post-day 2.

E0771 tumors = test: Flow cytometry of tumor-associated myeloid and lymphoid cells in E0771 tumors; type: in vivo, mouse; settings: STO-609 vs vehicle treated mice
Procedure: Tumors were removed from mice and minced with a surgical scalpel. Minced tissues were added to 5 ml HBSS containing Ca^2+ and Mg^2+ (ThermoFisher Scientific, MA, USA), and supplied with collagenase 2 mg/ml and DNase 0.1 mg/ml (Roche, Basel, Switzerland). Subsequently, they were transferred in gentleMACS C tubes, dissected with gentleMACS dissociator (Miltenyi, Bergisch Gladbach, Germany) and incubated for […] at 37° C. At the end of this incubation, tumors were dissected again with gentleMACS dissociator, and cell suspension passed through 70 μm-cell strainers (Coring, NY, USA), washed twice in PBS w/2% FBS and used for FACS analysis.
Staining of tumor-infiltrating E0771 tumors: 5×10^6 cells suspension from dissected tumors were surface stained with APC Cy7-CD3, PE-CD8, PE Cy7-CD4, APC PD-1 (all from BioLegend, CA, USA). Cells were incubated for 15 min at 4° C., washed with PBS-2% FCS. PerCP/Cy5.5 PD-1 antibody (BioLegend, CA, USA) was used for intracellular staining on fixed and permeabilized cells, according with manufacture's protocol (BioLegend). For myeloid cells staining, cells were incubated with PE anti-mouse/human CD11b, PE-Cy7 anti-mouse Ly6G, APC anti-mouse F4/80 (all from BioLegend), PerCpCy5.5 anti-mouse Ly6C, APC Cy7-I-A and Fixable Viability Dye eFluor 450 (eBioscience, CA, USA) at 4° C. for 15 min in dark. Subsequently, cells were washed with PBS w/2% FBS and analyzed by FACS. Bone marrow-derived macrophages (1×10^6) were stained with PE anti-mouse/human CD11b, APC anti-mouse F4/80 (BioLegend), APC Cy7-I-A and Fixable Viability Dye eFluor 450 (eBioscience). The stained cells were analyzed using a BD FACSCanto flow cytometer (BD, NJ, USA). Data is analyzed using FlowJo (TreeStar, OR, USA).

4T1 cells = test: Orthotopic 4T1 mammary tumor growth; type: in vivo, mouse; settings: syngeneic wildtype mice; IP 3-times/week
Procedure: as §1
(§3) […] […] GSK treatment was initiated at post-day 2.

Met1 cells = test: Orthotopic Met1 mammary tumor growth; type: in vivo, mouse; settings: syngeneic wildtype mice; IP 100 moles/Kg body weight 3-times/week
Procedure: as §1, §3

E.G7 cells = test: E.G7 lymphoma flank tumor growth under STO-609 treatment; type: in vivo, mouse; settings: C57BL/6 mice, peritoneal injection every 2-3 days, vs DMSO; p<0.001
Procedure: Flank Tumor Model 1×10^5 E.G7 cells were suspended in 100 μl PBS and implanted subcutaneously to the right side flank of the mice. Tumors were monitored using bioluminescence imaging each week. Tumor sizes were measured with calibrator every 3-4 days and calculated as: Length×Width×Width/2. In some experiments 5×10^5 cells were used as indicated. Mice were sacrificed when tumor reached 2 cm^3. ELISpot Analysis
STO-609 was purchased from TORIS Bioscience (Bristol, UK). The C57BL/6 mice were purchased from the Jackson Laboratory (CA, USA). The mice were inoculated with 5×10^5 E.G7 cells to the right flank subcutaneously on day 0. On day 7, the tumor growth was measured using bioluminescent imaging. All the mice with visible tumor under luciferin detection were randomized into STO-609 treatment group or DMSO control group. […] The tumor size was monitored using a calibrator every 3-4 days. The experiment was terminated when the tumor reached 2 cm^3.

E0771 cells [2] = test: E0771 tumor growth in CD8+ T-cell depleted Camkk2-/- mice; type: in vivo, mouse; settings: anti-CD8 treated Camkk2-/- mice, STO-609 vs vehicle
Procedure: as §1, §2
To deplete CD8+ cells, mice were injected intra-peritoneally with anti-mouse CD8 monoclonal antibody or its IgG control isotype (BioXCell, NH, USA) each at 200 μl at the concentration of 1 mg/ml 4 days and 1 day before tumor inoculation, and every 3 days after tumor cell injection. The effect of CD8 depletion was monitored by flow cytometry using 50 μl peripheral blood staining with APC anti-mouse CD8, APC-Cy7 anti-mouse CD45.2 (BioLegend) at the same time.

E.G7 tumor = test: Flow cytometry of tumors and spleens of E.G7 tumor bearing mice; type: in vivo, mouse; settings: vs DMSO
Procedure: The removed tumors were further minced with a surgical scalpel. The tissue were added to 5 ml HBSS w/Ca^2+ and Mg^2+ (ThermoFisher Scientific, MA, USA) supplied with collagenase 2 mg/ml and DNase 0.1 mg/ml (Roche, Basel, Switzerland) in gentleMACS C tubes and dissecting with gentleMACS dissociator (Miltenyi, Bergisch Gladbach, Germany). The samples were incubated in 37° C. for 15 min and passed through the 70 μm cell strainers (Coring, NY, USA). Cells were washed twice in PBS w/2% FBS before staining.
For myeloid cells staining, 5×10^6 cells were incubated with FITC anti-mouse CD11c, PE anti-mouse/human CD11b, PE-Cy7 anti-mouse Ly6G, APC anti-mouse F4/80 (all from BioLegend, CA, USA), PerCpCy5.5 anti-mouse Ly6C, Fixable Viability Dye eFluor® 450 (eBioscience, CA, USA) at 4° C. for 15 min in dark and washed with PBS w/2% FBS. The stained cells were analyzed using a BD FACSCanto flow cytometer (BD, NJ, USA). Data is analyzed using FlowJo (TreeStar, OR, USA).

## COc1ccc(O)c(C(C)(C)C)c1 [BHA, Butylated hydroxyanisole]
Bone marrow derived MDSC
  M-MDSC number / accumulation: same phenomenon was also observed
  differentiation towards Ly6C-IA+CD11c+ dendritic cells: same phenomenon was also observed

## CCCc1ccnc2[nH]cc(-c3ccc(C(=O)N[C@@H](CO)c4ccccc4)cc3)c12 [GSKi]
E0771 cells [1]
  E0771 mammary tumor growth (tumor volume): inhibited

## OO [H2O2]
Bone marrow derived MDSC
  M-MDSC number / accumulation: significantly decreased
  differentiation towards Ly6C-IA+CD11c+ dendritic cells: increased both the count and percentage

## CC1(C)CC(NC(=O)C[P+](c2ccccc2)(c2ccccc2)c2ccccc2)CC(C)(C)N1[O] [MitoTEMPO]
Bone marrow derived MDSC
  M-MDSC number / accumulation: significantly induced M-MDSC accumulation
  differentiation towards Ly6C-IA+CD11c+ dendritic cells: decreased the differentiation

## O=C(O)c1ccc2c3c1cccc3c(=O)n1c3ccccc3nc21 [STO-609]
E0771 tumors
  CD4+ T cells in E0771 tumors: promoting accumulation
  CD8+ T cells in E0771 tumors: promoting accumulation
  MHCII I-A high macrophages in E0771 tumors: promoting accumulation
  NK-T cells in E0771 tumors: promoting accumulation
4T1 cells
  4T1 mammary tumor growth (tumor volume): inhibited
E0771 cells [1]
  E0771 mammary tumor growth (tumor volume): antitumor activity
Met1 cells
  Met1 mammary tumor growth (tumor volume): inhibited
E.G7 cells
  lymphoma growth (E.G7 tumor size): significantly suppressed
E0771 cells [2]
  E0771 tumor growth in CD8+ T-cell depleted CamKK2-/- mice: without effect
E.G7 tumor; E.G7 tumors, p<0.05
  percentage of CD3 in the tumors: significantly higher
E.G7 tumor; Ly6C+ in CD11b+ population, p<0.001
  percentage of M-MDSC in the spleens: much lower
